# Data reported in US20120164104A1, “Composition and Methods of Treating Viral Infections and Viral Induced Tumors” (Chimerix, Inc., priority 2009, published 2012).
# How the values were obtained:
# RPTECs = test: Inspection of RPTECs by phase contrast microscopy; type: cell-based, human; settings: 3 day exposure to CMX001 0.31 μM
# tumor cell lines = test: Cell proliferation assay (MTS or SRB), panel of human tumor cell lines; type: cell-based; settings: 22 tumor cell lines, read-out: IC50 values in the tumor cell lines (range over panel)
# Procedure: The cell growth inhibitory activities of CMX001, Cidofovir, and a standard agent (varies depending on the tumor type of the cell lines) were evaluated in a panel of cell lines derived from multiple tumor types using a MTS or SRB based cell proliferation assay.
# In vitro cell proliferation assays were performed using a 96-well plate based MTSassay (CellTiter 96° AqueousOne Solution Cell Proliferation Assay, Promega) or SRB (Sulforhodamine-B) assay (1-3). Briefly, cells were plated in 100 μl medium on day 0 in 96-well microtiter plates (Falcon #3072). […]
# After incubation for 3 days at 37° C. in a humidified incubator, viable cells were measured either by MTS or SRB assay. For MTS assay, 20 μl of a 20:1 mixture of (3-(4,5-dimethylthiazol-2-yl)-5-(3-carboxymethoxyphenyl)-2-(4-sulfophenyl)-2H-tetrazolium, inner salt (MTS, 2 mg/ml) and an electron coupling reagent, phenazine methosulfate (PMS, 0.92 mg/ml in DPBS), was added to each well and incubated for 3 hours at 37° C. Absorbance was measured using a BioTek Synergy™ HT Multiple Detection microplate reader at 490 nm. For SRB assay, cells were fixed in situ with 50 μL of cold trichloroacetic acid (TCA, final concentration at 10% w/v) for 60 minutes. Cells were then washed 5 times with H2O and air-dried. […]
# Raw data were acquired using a BioTek Synergy™ HT Multiple Detection microplate reader and imported into Microsoft Excel for analysis. […]
# JCV Mad-4 = test: JCV VP1 late gene expression in COS-7 cells (immunofluorescence); type: cell-based; settings: 7 d.p.i.
# Source text: FIG. 16 illustrates the effect of increasing concentrations of CMX001 on expression of JCV proteins. Indirect immunofluorescence of JCV-infected COS-7 cells treated with indicated concentrations of CMX001, fixed 7 d.p.i. and stained with rabbit anti-VP1 serum (red) for visualization of the late capsid protein VP1 and with Höchst 33342 dye to show DNA (blue). The merged pictures are shown in the right panel.
# Cells were fixed with 4% p-formaldehyde (PFA) in phosphate-buffered saline, pH6.8 (PBS) at room temperature for 20 min and permeabilized with 0.2% Triton X-100 in PBS at room temperature for 10 min. After washing twice with PBS at room temperature for 5 min, PFA was quenched with 0.5 M NH4Cl in PBS at room temperature for 7 min followed washing twice with PBS at room temperature for 5 min. Blocking of unspecific binding sites was done with 3% milk in PBS at 37° C. for 15 min. Primary antibody (rabbit anti-VP1 1:300 in 3% milk PBS) was incubated at 37° C. for 45-60 min. Cells were washed twice with PBS on a shaker at room temperature for 5 min. Secondary antibody (chicken anti-rabbit Cy3 1:2000) and 5 μg/ml Höchst 33342 dye to stain DNA was given to the cells then incubated at 37° C. for 45-60 min. Cells were washed twice with PBS as before. Coverslips were mounted in NPropylgallat. […]
# EBV = test: CMX001 in human patients with EBV-associated PTLD; type: in vivo; settings: for EBV viral load: heart transplant recipient
# Source text: The first patient is a patient with a history of sickle cell anemia developed EBV-associated intracranial post-transplant lymphoproliferative disorder (PTLD). EBV was positive in the plasma (7 Dec. and 14 Dec. 2010) and brain biopsies were consistent with PTLD. In early December, the patient presented with a 3 day history of persistent headache, nausea, vomiting, and diarrhea. […] The patient was admitted to PICU. High intracranial pressure, repetitive seizures associated with apnea led to intubation and emergency request for CMX001. The use of CMX001 in this patient with EBV-associated PTLD is ongoing since […].
# The second patient was a heart transplant recipient with EBV-associated PTLD. The patient acquired a primary EBV infection post-operatively. […] The clinical condition continued to destabilize with what was presumed to be EBV-associated encephalitis with EBV detected in the CSF, clinical and EEG-correlated seizure activity and decreased responsiveness and changes in mental status. At the time of request for CMX001, the patient was on mechanical ventilation, had evidence of both pneumonia and PTLD of their lungs, evidence of seizure activity with clinical criteria for encephalopathy being present. The patient received their first dose of CMX001, 20 mg (approximately 3.3 mg/kg) on 3 Mar. 2010, and their second dose on 7 Mar. […] The patient continued to show evidence of progressive neurologic injury. The parents withdrew support on the day following their second dose of CMX001.
smiles,measurement,setting,value
CCCCCCCCCCCCCCCCOCCCOP(=O)(O)CO[C@H](CO)Cn1ccc(N)nc1=O [CMX001],signs of impaired viability,RPTECs,did not reveal any signs of impaired viability
same,IC50,tumor cell lines,6.6 to 100 µM
same,JCV VP1 signal by immunofluorescence,JCV Mad-4; CMX001 1.25 μM,significant reduction
same,JCV VP1 positive cells by immunofluorescence,JCV Mad-4; CMX001 5 μM,essentially no VP1 positive cells could be observed
same,EBV viral load,"EBV; 3 Mar. 2010 (day of first dose, 20 mg)","267,338 copies/mL"
same,EBV viral load,EBV; 7 Mar. 2010 (day of second dose),"47,427 copies/mL"
same,EBV in the plasma,EBV; patient on CMX001,remains negative
same,tolerability,"EBV; patient, 4 mg/kg twice weekly",tolerated CMX001 well
same,clinical outcome,"EBV; patient, intracranial PTLD, 4 mg/kg twice weekly",clinical improvement of their signs and symptoms of disease as well as stabilization if not reduction of their intracranial mass
